Test: physchem
Settings: octan-1-ol/water, pH 7.4

| SMILES | logD |
| --- | --- |
| CCC[C@@H](CN1CCCC1)N(C)C(=O)Cc1ccc(Cl)c(Cl)c1 | 2.27 |
| CCCCCCN1CC[C@]2(C)c3cc(O)ccc3CC1[C@@H]2C | 2.5 |
| CCOC(=O)C1(c2cccc(O)c2)CCCN(CC2CC2)C1 (configuration not stated) | 1.89 |
| Cc1ccc(CN2[C@@H]3CC[C@H]2C[C@@H](Oc2cccc(C(N)=O)c2)C3)s1 | 2.39 |
| NC(=O)c1cccc(S[C@H]2C[C@H]3CC[C@@H](C2)N3Cc2ccccc2)c1 | 2.22 |
| NC(=O)c1cc(F)cc(O[C@H]2C[C@H]3CC[C@@H](C2)N3Cc2ccccc2)c1 | 2.14 |
| Cc1cc(O[C@H]2C[C@H]3CC[C@@H](C2)N3Cc2ccccc2)cc(C(N)=O)c1 | 2.08 |
| Cc1cc(C(N)=O)ccc1O[C@H]1C[C@H]2CC[C@@H](C1)N2Cc1ccccc1 | 2.23 |
| CNC(=O)c1cccc(O[C@H]2C[C@H]3CC[C@@H](C2)N3Cc2ccccc2)c1 | 1.93 |
| Oc1cccc(O[C@H]2C[C@H]3CC[C@@H](C2)N3Cc2ccccc2)c1 | 2.3 |
| Cc1ccc(CN2[C@@H]3CC[C@H]2C[C@H](Oc2cccc(C(N)=O)c2)C3)s1 | 2.44 |
| NC(=O)c1cccc(O[C@@H]2C[C@H]3CC[C@@H](C2)N3CCc2ccccc2)c1 | 2 |
| CCN(CC)C(=O)c1ccc(C(=C2CCNCC2)c2ccc(Cl)c(Cl)c2)cc1 | 2.4 |
| CC(=O)NC1CC2CCCC(C1)N2C(=O)Nc1ccc(Cl)c(C(F)(F)F)c1 (configuration not stated) | 2.79 |
| CCN1CCN(C(=O)c2cc3cc(F)ccc3[nH]2)CC1 | 2.28 |
| CC(CC(=O)NCc1ccccc1)C1CCCO1 (configuration not stated) | 2.1 |
| O=c1cc(O)oc2c1c(=O)n(Cc1ccccc1)c1ccccc21 | 1.97 |
| CCc1c(C(=O)C(N)=O)c2c(OCC(N)=O)cccc2n1Cc1ccccc1 | 2.1 |
| Nc1nnc(Cc2ccc(Cl)cc2)s1 | 2.34 |
| CCCNC(=O)c1nnc2c(-c3cncc(C(=O)N4CCC4)c3)cccc2c1N | 2.79 |
| O=C1O[C@]2(CN3CCC2CC3)CN1c1ccc(Br)s1 | 2 |

| SMILES | logD |
| --- | --- |
| CCN(CC)C(=O)c1ccc([C@H](c2cccc(NC(=O)C3CC3)c2)N2CCN(CCOC)CC2)cc1 | 2.35 |
| CCOC(=O)Nc1cccc([C@@H](c2ccc(C(=O)N(C)CC)cc2)N2CCN(Cc3nc[nH]c3C)CC2)c1 | 2.32 |
| CCOC(=O)Nc1cccc([C@@H](c2ccc(C(=O)N(C)CC)cc2)N2CCN(Cc3c[nH]c(C)n3)CC2)c1 | 2.11 |
| CNC(=O)c1ccc(Oc2ccc(C#C[C@]3(O)CN4CCC3CC4)cc2)cc1 | 1.99 |
| O=C(c1ccc(C(=C2CCN(Cc3cscn3)CC2)c2cccc3cccnc23)cc1)N1CCCC1 | 2.75 |
| CN(C)C(=O)c1ccc(C(=C2CCN(Cc3cscn3)CC2)c2cccc3cccnc23)cc1 | 2.3 |
| O=C(c1ccc(C(=C2CCN(Cc3cscn3)CC2)c2cccc3cccnc23)cc1)N1CCOCC1 | 2.12 |
| CN1CCN(C(=O)c2ccc(C(=C3CCN(Cc4cscn4)CC3)c3cccc4cccnc34)cc2)CC1 | 1.98 |
| O=C(c1ccc(C(=C2CCN(Cc3cscn3)CC2)c2cccc3cccnc23)cc1)N1CCC(O)CC1 | 1.89 |
| O=C(N[C@H]1CN2CCC1CC2)c1ccc(-c2ccccc2)s1 | 1.9 |
| Nc1nc(Nc2ccc3nc(-c4ccc(F)cc4)cc(N)c3c2)cc(-c2cccc(Cl)c2)n1 | 2.5 |
| Clc1ccc(C2CC=CCNC2)cc1Cl (configuration not stated) | 1.86 |
| Clc1ccc([C@H]2CC=CCNC2)cc1Cl | 1.95 |
| COC(=O)N1CCN(C(=O)Cc2ccc(Cl)c(Cl)c2)[C@H](CN2CCCC2)C1 | 2.05 |
| CN1CCC(C#N)(c2cccc3ccccc23)CC1 | 2.73 |
| O=C1CC(c2ccc(O)cc2)Oc2cc(O)cc(O)c21 (configuration not stated) | 2.6 |
| CNC1=Nc2ncccc2C(c2ccns2)=NC1c1cccs1 (configuration not stated) | 2.15 |
| CNC1=Nc2ncccc2C(c2ccco2)=NC1c1cccs1 (configuration not stated) | 1.85 |
| CNC(=O)c1ccc(Nc2nccc(-c3cnc(C4CC4)n3C(C)C)n2)cc1 | 2.77 |
| Cc1cc(=O)[nH]c2sc(C(=O)c3ccc(Br)cc3)c(N)c12 | 2.57 |
| COC(=O)N1CCN(C(=O)Cc2ccc(Cl)c(Cl)c2)[C@@H](CN2CCCC2)C1 | 1.97 |
